“Also recorded” adds a separate entry of the source.
Target: T1, Nk3R (Mus musculus, UniProt P47937)
T1 sequence (P47937 1-452): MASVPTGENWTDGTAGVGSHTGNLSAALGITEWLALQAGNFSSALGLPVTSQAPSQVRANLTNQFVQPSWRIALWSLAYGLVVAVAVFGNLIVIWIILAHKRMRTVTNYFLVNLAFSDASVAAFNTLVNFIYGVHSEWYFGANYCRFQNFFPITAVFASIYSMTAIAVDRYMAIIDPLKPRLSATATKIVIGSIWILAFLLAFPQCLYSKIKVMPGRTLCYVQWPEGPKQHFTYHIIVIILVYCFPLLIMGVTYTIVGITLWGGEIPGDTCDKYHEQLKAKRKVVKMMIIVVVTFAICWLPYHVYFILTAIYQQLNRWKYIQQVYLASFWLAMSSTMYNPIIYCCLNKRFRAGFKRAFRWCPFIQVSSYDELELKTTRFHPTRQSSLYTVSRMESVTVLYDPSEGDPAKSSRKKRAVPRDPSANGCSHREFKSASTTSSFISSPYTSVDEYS
Experiment: Looming disk assay (freezing, tail rattles, latency to orient), osanetant
Format: in vivo
Set-up: from tissue; host or cells: Living mice (wild-type C57Bl6/N males, Charles River)
Conditions: for SIS-induced increased tail rattling (looming disk assay) / SIS-induced persistent (post) freezing to looming disk: SIS mice; for SIS-induced increased tail rattling (looming disk assay): acute systemic osanetant; for acute (and thereby persistent) freezing to innate threatening stimulus (looming disk): osanetant injection into CeA
Experimental: Freezing behavior to presentation of an overhead looming disk proceeded as previously described (Kunwar et al., 2015; Yilmaz and Meister, 2013; incorporated by reference in their entirety). Briefly, mice were transported to a novel behavioral testing room. After 5 minutes of acclimation, mice were placed inside a novel, custom-built open top Plexiglas arena (48×48×30 cm) covered with a flat screen monitor placed directly above and with illumination provided by infrared LEDs (Marubeni). Mice were given a 5 minute baseline period in the arena, after which entry into the center of the arena triggered presentation of a single, 10 second overhead looming disk stimulus (comprised of a single looming disk presentation 0.5 seconds in duration, which was repeated 10 times with an inter-stimulus interval of 0.5 seconds). The stimulus was controlled by custom MATLAB code (M. Meister, Caltech) run on a dedicated computer in an adjacent room. Mice remained in the area for an additional 2 minutes before being transported back. Behavior was recorded using a video recorder attached to a laptop equipped with video capture software (Corel VideoStudio Pro). Acute freezing behavior to the looming disk (“during”) as well as in the 30 seconds following the last disk (“post”) were scored manually (Behavior Annotator, MATLAB) by an observer blind to environmental conditions.
Mice were administered the Nk3R antagonist osanetant (Axon Medchem, Axon 1533) either systemically or intra-brain region. Osanctant was dissolved in saline with 0.1% Tween 20 (vehicle). For systemic administration mice received an intraperitoneal (i.p.) injection (5 mg/kg) 20 minutes prior to behavioral testing. For microinfusions, guide cannulas were removed from mice and replaced with injector cannulas (Plastics One), which protruded 0.5 mm from the tip of the guide cannula. Injectors were attached to 5 μl Hamilton syringes with PE tubing (Plastics One) and mounted on a microinfusion pump (Harvard Apparatus) for controlled infusion of osanetant (0.3 μl vehicle with 375 ng dose per site injected over 6 minutes). For experiments using systemic administration of clozapine-N-oxide (CNO), CNO (Enzo Life Sciences-Biomol, BML-NS105-0005) was dissolved in saline (9 g/L NaCl) and injected (i.p.) at 5 mg/kg for hM4DREADD silencing or 2 mg/kg for hM3DREADD activation 20 minutes prior to behavioral testing. CNO was also administered chronically in drinking water (0.5 mg CNO/100 ml water).

## CC(=O)N(C)C1(c2ccccc2)CCN(CCC[C@]2(c3ccc(Cl)c(Cl)c3)CCCN(C(=O)c3ccccc3)C2)CC1 [osanetant, N-(1-{3-[(3R)-1-benzoyl-3-(3,4-dichlorophenyl)piperidin-3-yl]propyl}-4-phenylpiperidin-4-yl)-N-methylacetamide]
  SIS-induced increased tail rattling (looming disk assay): attenuated
  acute (and thereby persistent) freezing to innate threatening stimulus (looming disk): reduced
Listed as Osanetant
  SIS-induced increased tail rattling (looming disk assay): blocked
  acute (and thereby persistent) freezing to innate threatening stimulus (looming disk): selectively blocked
Osanetant 5 mg/kg i.p. 20 min before test
  SIS-induced persistent (post) freezing to looming disk: blocked
Osanetant 5 mg/kg i.p. 20 min before test, listed as Osanetant
  SIS-induced persistent (post) freezing to looming disk: attenuated
Osanetant 5 mg/kg i.p. 20 min before test, between groups
  freezing during presentation of looming disk (acute): no significant differences
Osanetant daily during two-week isolation, tested off-drug
  persistent freezing to looming disk: prevented
Osanetant microinfusion into ACC or striatum
  SIS-induced persistent freezing to looming disk: failed to yield significant effects; also recorded: No significant effects
Osanetant microinfusion into DMH
  persistent responses to looming stimulus: had no effect
Osanetant microinfusion into dBNSTa, 375 ng per site, 20 min before test
  SIS-induced persistent freezing to looming disk: selectively inhibited
Osanetant microinfusion into dBNSTa, 375 ng per site, 20 min before test, listed as Osanetant
  SIS-induced persistent freezing to looming disk: selectively blocked
